The values below come from patent US5298495A, “Partricin derivatives” (SPA Societa' Prodotti Antibiotici SpA, priority 1990, dated 1994).

Values after ≈ are worked out from the molar mass of the structure shown. Like-named read-outs stand apart in the source and are kept apart here. A value given as a limit tells only on which side of the number the result lay.

Data set [1] can be described thus: Solubility and reaction in water. Format: physicochemical.
In another data set the test system is C. albicans 73. As to the kind of experiment: Microbiological activity on C. albicans (MIC). Format: cell-based. Particulars: Fluid Sab. Med, 36° C.; for MIC: Candida albicans, 73. The text has this: (§1) MIC (ng/ml) Hemolytic con.(mcg/ml)
(§2) C. albicans 73 rat erytrocytes, […]

The next data set has as its system rat erytrocytes. As to the kind of experiment: Hemolytic activity on rat erythrocytes. Format: cell-based.
Description: as §1, §2

A short description of data set [2]: Acute toxicity in mice (DL50). Format: in vivo. Particulars: mouse, in vivo.
The conditions of data set [3]: cited from earlier work.
In a further data set the test system is mice. The data set can be described thus: Acute toxicity in mice (DL50). Format: in vivo.
Setting [4] is: 24 h, read-out: MIC C. albicans 73, 24 h.
[5] abbreviates: 48 h, read-out: MIC C. albicans 73, 48 h.
The mark [6] stands for this setting: rat erytrocytes, 4 h at 37° C., minimum.
Where [7] appears, read: rat erytrocytes, 4 h at 37° C., total.

Take `CNc1ccc(C(=O)CC(O)CCC(C)C2OC(=O)CC(O)CC(=O)CC(O)CC(O)CC(O)CC(O)CC3(O)CC(O)C(C(=O)NCCN(C)C)C(CC(OC4OC(C)C(O)C(NC(=O)CN(C)C)C4O)C=CC=CC=CC=CC=CC=CC=CC2C)O3)cc1` (stereo not drawn) [Example 5, N-DIMETHYLAMINOACETYL-PARTRICIN A 2-DIMETHYL-AMINOETHYLAMIDE DIASPARTATE]: in data set [1], the “solubility in water” value is listed as “soluble in water”. The “pH of aqueous solution (almost neutral reaction)” value in data set [1] (in water) is recorded as 6.
For the molecule `CNc1ccc(C(=O)CC(O)CCC(C)C2OC(=O)CC(O)CC(=O)CC(O)CC(O)CC(O)CC(O)CC3(O)CC(O)C(C(=O)N4CCN(C)CC4)C(CC(OC4OC(C)C(O)C(NC(=O)CN(C)C)C4O)C=CC=CC=CC=CC=CC=CC=CC2C)O3)cc1` (stereo not drawn) [Partr. A, COCH2N(CH3)2, drawing 31], the MIC with C. albicans 73 (setting [4]) was 0.0075 µg/mL (≈ 0.00579 µM); in the data set on C. albicans 73 (setting [5]) it was 0.0212 µg/mL (≈ 0.0164 µM). In addition, in the data set on rat erytrocytes (setting [6]), the “Hemolytic con. min. (MHC)” value was determined as 0.2 µg/mL. Further, the “Hemolytic con. total (THC)” value with rat erytrocytes (setting [7]) came out at 2 µg/mL. Moreover, the LD50 in data set [2] (ip, read-out: DL50 mice i.p.) was found to be 3.6 mg/kg.
In the case of `CNc1ccc(C(=O)CC(O)CCC(C)C2OC(=O)CC(O)CC(=O)CC(O)CC(O)CC(O)CC(O)CC3(O)CC(O)C(C(=O)NCCc4ccccn4)C(CC(OC4OC(C)C(O)C(NC(=O)CN(C)C)C4O)C=CC=CC=CC=CC=CC=CC=CC2C)O3)cc1` (stereo not drawn) [Partr. A, COCH2N(CH3)2, drawing 50], the MIC with C. albicans 73 (setting [4]) is 0.015 µg/mL (≈ 0.0114 µM); in the data set on C. albicans 73 (setting [5]), 0.0424 µg/mL (≈ 0.0322 µM). For the same molecule, the “Hemolytic con. total (THC)” value in the data set on rat erytrocytes was > 18 µg/mL. Besides, the “Hemolytic con. min. (MHC)” value in the data set on rat erytrocytes (rat, 240 min) amounted to 18 µg/mL. Moreover, the LD50 in data set [2] (ip, read-out: DL50 mice i.p.) is > 300 mg/kg; in data set [2] (iv, read-out: DL50 mice i.v.), 76.8 mg/kg.
For the molecule `CNc1ccc(C(=O)CC(O)CCC(C)C2OC(=O)CC(O)CC(=O)CC(O)CC(O)CC(O)CC(O)CC3(O)CC(O)C(C(=O)OC)C(CC(OC4OC(C)C(O)C(NC(=O)CCN5CCCCC5)C4O)C=CC=CC=CC=CC=CC=CC=CC2C)O3)cc1` (stereo not drawn) [Partr. A, drawing 32, OCH3], the results for the MIC in the data set on C. albicans 73 (setting [4]) and in the data set with C. albicans 73 (setting [5]) were 0.0075 µg/mL (≈ 0.00586 µM) and 0.0424 µg/mL (≈ 0.0331 µM), respectively. In the data set with rat erytrocytes, the “Hemolytic con. total (THC)” value came to 18 µg/mL. In the data set with rat erytrocytes (rat, 240 min), the “Hemolytic con. min. (MHC)” value stood at 3.5 µg/mL. Moreover, in data set [2] (ip, read-out: DL50 mice i.p.), the LD50 is > 30 mg/kg.
On the same counts, the results for `CNc1ccc(C(=O)CC(O)CCC(C)C2OC(=O)CC(O)CC(=O)CC(O)CC(O)CC(O)CC(O)CC3(O)CC(O)C(C(=O)NCCN(C)C)C(CC(OC4OC(C)C(O)C(NC(=O)CCN5CCCCC5)C4O)C=CC=CC=CC=CC=CC=CC=CC2C)O3)cc1` (stereo not drawn) [Partr. A, drawing 33, NHCH2 CH2N(CH3)2] are 0.0075 µg/mL (≈ 0.00561 µM), 0.03 µg/mL (≈ 0.0224 µM), 18 µg/mL, 6 µg/mL and 43.6 mg/kg.
On to `CNc1ccc(C(=O)CC(O)CCC(C)C2OC(=O)CC(O)CC(=O)CC(O)CC(O)CC(O)CC(O)CC3(O)CC(O)C(C(=O)OC)C(CC(OC4OC(C)C(O)C(NC(=O)CN5CCN(C)CC5)C4O)C=CC=CC=CC=CC=CC=CC=CC2C)O3)cc1` (stereo not drawn) [Partr. A, drawing 38, OCH3], for which the MIC stood at 0.015 µg/mL (≈ 0.0117 µM) with C. albicans 73 (setting [4]) and 0.03 µg/mL (≈ 0.0234 µM) with C. albicans 73 (setting [5]). Further, the “Hemolytic con. total (THC)” value with rat erytrocytes turned out to be 18 µg/mL. The “Hemolytic con. min. (MHC)” value in the data set on rat erytrocytes (rat, 240 min) is 0.7 µg/mL. In data set [2] (ip, read-out: DL50 mice i.p.), the LD50 turned out to be 29.3 mg/kg.
Turning to `CNc1ccc(C(=O)CC(O)CCC(C)C2OC(=O)CC(O)CC(=O)CC(O)CC(O)CC(O)CC(O)CC3(O)CC(O)C(C(=O)NCCN(C)C)C(CC(OC4OC(C)C(O)C(NC(=O)CN5CCN(C)CC5)C4O)C=CC=CC=CC=CC=CC=CC=CC2C)O3)cc1` (stereo not drawn) [Partr. A, drawing 39, NHCH2 CH2N(CH3)2], the figures for the MIC in the data set with C. albicans 73 (setting [4]) and in the data set with C. albicans 73 (setting [5]) were 0.0106 µg/mL (≈ 0.00792 µM) and 0.03 µg/mL (≈ 0.0224 µM), respectively. Moreover, in the data set with rat erytrocytes, the “Hemolytic con. total (THC)” value is 18 µg/mL. Further, in the data set with rat erytrocytes (rat, 240 min), the “Hemolytic con. min. (MHC)” value came to 2 µg/mL. The LD50 in data set [2] (ip, read-out: DL50 mice i.p.) was > 100 mg/kg.
In the case of `CNc1ccc(C(=O)CC(O)CCC(C)C2OC(=O)CC(O)CC(=O)CC(O)CC(O)CC(O)CC(O)CC3(O)CC(O)C(C(=O)N4CCN(C)CC4)C(CC(OC4OC(C)C(O)C(NC(=O)CN5CCN(C)CC5)C4O)C=CC=CC=CC=CC=CC=CC=CC2C)O3)cc1` (stereo not drawn) [Partr. A, drawing 42, drawing 43], the MIC in the data set with C. albicans 73 (setting [4]) turned out to be 0.0075 µg/mL (≈ 0.00556 µM); in the data set on C. albicans 73 (setting [5]) it was 0.0212 µg/mL (≈ 0.0157 µM). Further, the “Hemolytic con. min. (MHC)” value in the data set with rat erytrocytes (setting [6]) worked out at 0.2 µg/mL. Besides, the “Hemolytic con. total (THC)” value in the data set with rat erytrocytes (setting [7]) turned out to be 0.7 µg/mL. Further, in data set [2] (ip, read-out: DL50 mice i.p.), the LD50 was 3.8 mg/kg.
For `CNc1ccc(C(=O)CC(O)CCC(C)C2OC(=O)CC(O)CC(=O)CC(O)CC(O)CC(O)CC(O)CC3(O)CC(O)C(C(=O)OC)C(CC(OC4OC(C)C(O)C(NC(=O)CN5CCN(CCO)CC5)C4O)C=CC=CC=CC=CC=CC=CC=CC2C)O3)cc1` (stereo not drawn) [Partr. A, drawing 44, OCH3], the values for the minimum inhibitory concentration (MIC) with C. albicans 73 (setting [4]) and in the data set with C. albicans 73 (setting [5]) were 0.015 µg/mL (≈ 0.0114 µM) and 0.03 µg/mL (≈ 0.0229 µM), respectively. Besides, the “Hemolytic con. total (THC)” value in the data set on rat erytrocytes turned out to be 18 µg/mL. Also, in the data set with rat erytrocytes (rat, 240 min), the “Hemolytic con. min. (MHC)” value came to 0.7 µg/mL. Moreover, in data set [2] (ip, read-out: DL50 mice i.p.), the LD50 is > 30 mg/kg.
The corresponding values for `CNc1ccc(C(=O)CC(O)CCC(C)C2OC(=O)CC(O)CC(=O)CC(O)CC(O)CC(O)CC(O)CC3(O)CC(O)C(C(=O)NCCN(C)C)C(CC(OC4OC(C)C(O)C(NC(=O)CN5CCN(CCO)CC5)C4O)C=CC=CC=CC=CC=CC=CC=CC2C)O3)cc1` (stereo not drawn) [Partr. A, drawing 45, NHCH2 CH2N(CH3)2] are 0.0075 µg/mL (≈ 0.00548 µM), 0.0212 µg/mL (≈ 0.0155 µM), 18 µg/mL, 0.7 µg/mL and > 100 mg/kg.
For `CNc1ccc(C(=O)CC(O)CCC(C)C2OC(=O)CC(O)CC(=O)CC(O)CC(O)CC(O)CC(O)CC3(O)CC(O)C(C(=O)NCCc4ccccn4)C(CC(OC4OC(C)C(O)C(NC(=O)CCN5CCCCC5)C4O)C=CC=CC=CC=CC=CC=CC=CC2C)O3)cc1` (stereo not drawn) [Partr. A, drawing 51, drawing 52], the MIC in the data set with C. albicans 73 (setting [4]) stood at 0.03 µg/mL (≈ 0.0219 µM); in the data set with C. albicans 73 (setting [5]) it was 0.06 µg/mL (≈ 0.0438 µM). In the data set with rat erytrocytes, the “Hemolytic con. total (THC)” value was > 18 µg/mL. In the data set on rat erytrocytes (rat, 240 min), the “Hemolytic con. min. (MHC)” value is 6 µg/mL. Moreover, the LD50 in data set [2] (ip, read-out: DL50 mice i.p.) was > 300 mg/kg; in data set [2] (iv, read-out: DL50 mice i.v.), 109 mg/kg.
As for mepartricin, the “solubility in water of mepartricin (words, background)” value in data set [3] is given as “water-insoluble”.
In the case of “mepartricin [Partr., H, OCH3, reference compound]”, in the data set with C. albicans 73 (24 h), the “MIC C. albicans 73, 24 h” value turned out to be 0.0075 µg/mL. In addition, the “MIC C. albicans 73, 48 h” value in the data set on C. albicans 73 (48 h) was 0.03 µg/mL. For the same molecule, in the data set with rat erytrocytes (setting [6]), the “Hemolytic con. min. (MHC)” value was determined as 0.7 µg/mL. Also, the “Hemolytic con. total (THC)” value in the data set on rat erytrocytes (setting [7]) was determined as 18 µg/mL. Besides, the DL50 mice i.p. in the data set on mice is on record as 15.8 mg/kg. Besides, the DL50 mice i.v. with mice (i.v.) is listed as 5.02 mg/kg.
Take “partricin [Partr., H, OH, reference compound]”: the “MIC C. albicans 73, 24 h” value against C. albicans 73 (24 h) stood at 0.03 µg/mL. Further, in the data set on C. albicans 73 (48 h), the “MIC C. albicans 73, 48 h” value turned out to be 0.06 µg/mL. Also, the “Hemolytic con. min. (MHC)” value with rat erytrocytes (setting [6]) was < 0.2 µg/mL. Moreover, the “Hemolytic con. total (THC)” value with rat erytrocytes (setting [7]) was < 0.2 µg/mL. The DL50 mice i.p. in the data set with mice was determined as 0.63 mg/kg.
